Test results published in article PMC5896380, “Selective imaging of cathepsin L in breast cancer by fluorescent activity-based probes” (Chemical Science, 2018).

Tests used:
[1] = system: HEK293T cathepsin L-transfected cells; details: probes 0–10 μM incubated with cells up to 24 hours; streptavidin–HRP blot
Description: To evaluate probe uptake, 250 000 HEK293T cells transfected with pcDNA3:ppCatL were seeded into 6-well plates and incubated with various concentrations of bMP-cL1 and bMP-cL2 (0–10 μM) for up to 24 hours. In control experiments the cells were preincubated with 25 μM E-64d, a pan-cathepsin inhibitor, for 2 hours prior to probe addition. After incubation samples were collected and immunoblotted. Biotinylated proteins were detected as described above.

[2] = system: HEK293T cells overexpressing cathepsin L; details: probes 5 μM, 18 hours; streptavidin magnetic beads; immunoblotting
Description: To evaluate MP-cL1 and MP-cL2 selectivity, 250 000 HEK293T cells overexpressing cathepsin L were plated and treated with probes and inhibitors as described above. Streptavidin-bound magnetic beads were prepared in separate tubes according to the manufacturer’s guidelines (Pierce™ Streptavidin Magnetic Beads, Thermo Scientific). Briefly, 50 μL beads were washed with sample lysis buffer and then the lysates were added. Tubes were incubated at room temperature on a rocking platform for 2 hours. The beads were then extensively washed with 50 mM Tris-buffered saline containing 0.1% Tween-20 and collected between each washing step. The beads were then re-suspended in 1× SDS loading buffer at a final volume of 100 μL, and the samples were placed at 95 °C and prepared for immunoblotting as described above to detect biotinylated proteins in the lysates, as well as in the unbound and eluted fractions. To confirm cathepsin L/B selectivity, we seeded HEK293T cells as described above. The probes were added at a 5 μM final concentration and incubated for 18 hours before the cells were harvested and lysed to isolate biotinylated proteins using streptavidin magnetic beads, as described above. The lysates plus the unbound and eluting fractions were then evaluated to detect cathepsin B (in-house mouse polyclonal Ab;[51] dilution 1 : 1000) and cathepsin L (Abcam ab62710).

cathepsin L = molecular target: T1, cathepsin L (Homo sapiens, UniProt P07711); assay: kobs/I of activity-based probes, cathepsin L; assay type: biochemical; details: Fig. 6A; pseudo-first order, probe at least 5-fold excess over cathepsin, 100 μM ACC substrate; pH 5.5, 37 °C; triplicate, SD below 20%
T1 construct: made in house
Description: (§1) All kinetic experiments were performed using fMax (Molecular Devices) and CLARIOStar (BMG LABTECH) spectrofluorimeters operating in kinetic mode using 96-well plates. ACC-labeled substrates were screened using 355 nm and 460 nm wavelengths (excitation and emission, respectively). […] The buffer was prepared at room temperature and the enzyme kinetic studies were performed at 37 °C.
(§2) For the kinetic studies, five recombinant human cathepsins (B, L, V, K and S) were expressed and purified and active site titrated using an E64 inhibitor. The kobs/I parameter was measured under pseudo-first order kinetic conditions, as described.[40] The cathepsin of interest was mixed with various concentrations of probe (at least 5-fold excess over cathepsin) and 100 μM ACC-fluorescence substrate. The experiments were repeated at least three times, and the results are presented as an average. The SDs were below 20%.

cathepsin V = molecular target: T2, cathepsin V (Homo sapiens, UniProt O60911); assay: kobs/I of activity-based probes, cathepsin V; assay type: biochemical; details: Fig. 6A; pseudo-first order, probe at least 5-fold excess over cathepsin, 100 μM ACC substrate; pH 5.5, 37 °C; triplicate, SD below 20%
T2 construct: made in house
Description: as §1, §2

cathepsin B = molecular target: T3, cathepsin B (Homo sapiens, UniProt P07858); assay: kobs/I of activity-based probes, cathepsin B; assay type: biochemical; details: Fig. 6A; pseudo-first order, probe at least 5-fold excess over cathepsin, 100 μM ACC substrate; pH 5.5, 37 °C; triplicate, SD below 20%
T3 construct: made in house
Description: as §1, §2

cathepsin S = molecular target: T4, cathepsin S (Homo sapiens, UniProt P25774); assay: kobs/I of activity-based probes, cathepsin S; assay type: biochemical; details: Fig. 6A; pseudo-first order, probe at least 5-fold excess over cathepsin, 100 μM ACC substrate; pH 5.5, 37 °C; triplicate, SD below 20%
T4 construct: made in house
Description: as §1, §2

cathepsin K = molecular target: T5, cathepsin K (Homo sapiens, UniProt P43235); assay: kobs/I of activity-based probes, cathepsin K; assay type: biochemical; details: Fig. 6A; pseudo-first order, probe at least 5-fold excess over cathepsin, 100 μM ACC substrate; pH 5.5, 37 °C; triplicate, SD below 20%
T5 construct: made in house
T5 sequence (P43235 115-329): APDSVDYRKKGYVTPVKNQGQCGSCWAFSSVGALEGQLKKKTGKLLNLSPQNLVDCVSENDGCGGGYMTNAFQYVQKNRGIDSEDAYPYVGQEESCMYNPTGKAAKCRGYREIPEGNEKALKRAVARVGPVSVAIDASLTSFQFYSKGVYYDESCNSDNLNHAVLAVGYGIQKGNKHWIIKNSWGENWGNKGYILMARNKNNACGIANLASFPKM
Description: as §1, §2

[3] = system: cathepsins L and B in MDA-MB-231 cells; assay: Cathepsin labeling in MDA-MB-231 cells by SDS-PAGE and western blotting; assay type: cell-based, human
Description: Low passage MDA-MB-231 cells were seeded on 12-well plates (200 000 cells per well per 1 mL of medium) and cultured in Dulbecco’s Modification of Eagle’s Medium (DMEM) supplemented with 10% fetal bovine serum, 2 mM of L-glutamine, 100 units per mL penicillin and 100 μg mL^–1 streptomycin. […] To control for non-specific binding, the cells were preincubated with E64d (25 μM) for 2 hours prior to probe addition. At various time points, the medium was aspirated and the cells were gently washed twice with 1 mL of Dulbecco’s Phosphate-Buffered Saline (DPBS) and then trypsinized, harvested and centrifuged for 10 min (500 × g). The supernatants were removed by aspiration and the pellets washed with 1 mL of DPBS and centrifuged (5 min, 500 × g). The supernatants were again removed and the pellets solubilized in 100 μL 1× SDS/DTT and then boiled for 5 min. Each sample was then cooled to room temperature and sonicated (Branson Sonifier 250, duty cycle: 50, output control: 5, cycles: 5) and then 30 μL was loaded on 4–12% Bis-Tris Plus gels and run for 30 min at 200 V with a SDS-PAGE Standards/Broad Range ladder. Proteins were transferred to a 0.2 μm nitrocellulose membrane for 1 hour at 10 V and then Ponceau staining was used to verify equal loading. Membranes were blocked with 2.5% BSA in Tris-buffered saline/0.1% v/v Tween 20 (TBS-T) for 1 hour at room temperature. Cathepsins L and B were detected by primary goat anti-hCathepsin L (R&D, AF952, 0.2 mg mL^–1, 1 : 2000) and goat anti-hCathepsin B (R&D, AF953, 0.2 mg mL^–1, 1 : 1000) antibodies, respectively, followed by incubation with a secondary antibody (IRDye® 800CW, LI-COR, donkey anti-goat, 1 : 10 000). The membranes were incubated with primary antibodies for 2 hours, and with (fluorescent) secondary antibodies for 30 min (both in TBS-T at room temperature). The fluorescence was read at 700 nm (Cyanine5; excitation 685 nm) and 800 nm (secondary antibody; excitation 785 nm) using an Odyssey fluorescence imaging system (LI-COR). The images were analyzed using Image Studio software.

[4] = system: cathepsins L and B in HEK293T cells; assay: Cathepsin labeling by Cy5 probes in HEK293T cells, immunoblotting; assay type: cell-based, human; details: 1 μM probe, 0–18 hours
Description: Figure S3 Cathepsins labeling by two Cy5-tagged probes in HEK293T cells. Panel A. Cells (100,000/well/mL) were incubated with MP-cL3 (1µM) probe for 0-18 hours. Next, cells were harvested and subjected for Western blotting. MP-cL3 probe is very selective toward cathepsin L even after 18 hours of incubation (only residual cathepsin B activity is detected).
MDA-MB-231, thus mostly heavy chain of cathepsin L is labeled. Panel B and Panel C. Cells (100,000/well/mL) were incubated with pan-specific MP-pc1 (1µ M) probe for 0-18 hours. Next, cells were harvested and subjected […]
(1 picture or pasted object on this page, not shown here)

[5] = system: cathepsins L, V, B, S and K; assay: Labeling of recombinant cathepsins by Cy5 probes, SDS-PAGE; assay type: biochemical, human; details: cathepsins 10 nM or 100 nM, probe/enzyme ratio 0.2, 1, 5 and 25, 30 min, Cy5 scan
Description: In experiment A, the probe concentrations were 2 nM, 10 nM, 50 nM and 250 nM, while in experiment B the probe concentrations were 20 nM, 100 nM, 500 nM and 2.5 μM. The reaction volume for all the samples was 200 μL. After 30 min, 100 μL of 3× SDS/DTT was added to the reaction mixtures, the samples were boiled for 5 min, and then 20 μL of the sample was run on 4–12% Bis-Tris Plus 15-well gels for 30 min at 200 V with 2 μL of PageRuler™ Prestained Protein Ladder. The gels were then directly scanned at 700 nm (red channel for Cy5 detection; excitation 685 nm) using an Odyssey fluorescence imaging system (LI-COR) and the images were analyzed using Image Studio software.

T2 sequence (O60911 114-334): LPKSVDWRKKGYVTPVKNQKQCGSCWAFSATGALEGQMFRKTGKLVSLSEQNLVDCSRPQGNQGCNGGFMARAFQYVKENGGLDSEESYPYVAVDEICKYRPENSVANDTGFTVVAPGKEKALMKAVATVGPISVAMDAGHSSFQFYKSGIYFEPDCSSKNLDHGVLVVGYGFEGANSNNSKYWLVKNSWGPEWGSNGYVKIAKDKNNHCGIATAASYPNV
T4 sequence (P25774 115-331): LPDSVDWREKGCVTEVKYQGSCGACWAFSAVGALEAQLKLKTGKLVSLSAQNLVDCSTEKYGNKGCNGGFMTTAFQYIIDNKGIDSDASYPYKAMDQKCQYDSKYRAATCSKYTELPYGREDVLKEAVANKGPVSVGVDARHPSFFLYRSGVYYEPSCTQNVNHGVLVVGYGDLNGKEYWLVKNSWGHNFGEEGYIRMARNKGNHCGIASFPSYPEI
T1 sequence (P07711 114-333): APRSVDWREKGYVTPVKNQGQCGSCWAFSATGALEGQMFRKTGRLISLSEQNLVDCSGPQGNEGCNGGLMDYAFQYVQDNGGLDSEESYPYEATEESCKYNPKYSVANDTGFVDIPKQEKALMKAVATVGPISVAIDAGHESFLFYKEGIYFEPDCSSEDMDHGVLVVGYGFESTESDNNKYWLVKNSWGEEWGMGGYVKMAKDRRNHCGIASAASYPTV

| Molecule | lowest probe concentration giving a signal in the cathepsin MW range [1] [nM] | cross-reactivity with cathepsin B in pulldown eluting fractions [2] | kobs/I Cath-L (cathepsin L) | kobs/I Cath-V (cathepsin V) | kobs/I Cath-B (cathepsin B) | kobs/I Cath-S (cathepsin S) | kobs/I Cath-K (cathepsin K) | cathepsins labeled in MDA-MB-231 cells ([3]; 1 μM probe, 0–18 hours, antibody overlay) | cathepsins labeled in HEK293T cells [4] | labeling of recombinant cathepsins L, V, B, S and K [5] | effect of pre-incubation on cathepsin labeling by probe ([3]; 25 μM, 2 hours prior to probe addition, MDA-MB-231 cells) |
| --- | --- | --- | --- | --- | --- | --- | --- | --- | --- | --- | --- |
| biotin-6-ahx-His-DThr-Phe(F5)-Arg-AOMK [MP-cL1] [listing 1 of 2 here] | 100 | only minor cross-reactivity | – | – | – | – | – | – | – | – | – |
| Cy5-Ala-Arg-Leu-Arg-AOMK [MP-pc1, Cy5-labeled broad spectrum (pan-specific) cathepsin probe] | – | – | 47,500 M^-1s^-1 | 53,200 M^-1s^-1 | 265,000 M^-1s^-1 | 202,500 M^-1s^-1 | 30,150 M^-1s^-1 | bound mostly to cathepsin B | labeled both cathepsins L (25 kDa and 30 kDa) and B (30 kDa) | can label cathepsins L, V, B and S (10 nM) even at a 1 : 1 ratio | – |
| biotin-6-ahx-His-DThr-Phe(F5)-Arg-AOMK [MP-cL1] [listing 2 of 2 here] | – | – | 26,600 M^-1s^-1 | 780 M⁻¹ s⁻¹ | 1,900 M^-1s^-1 | < 100 M⁻¹ s⁻¹ | < 100 M⁻¹ s⁻¹ | – | – | – | – |
| Cy3-6-ahx-Ala-Arg-Leu-Arg-AOMK [MP-pc3, Cy3-labeled pan-cathepsin probe] | – | – | 16,900 M^-1s^-1 | 6,700 M^-1s^-1 | 75,400 M^-1s^-1 | 69,000 M^-1s^-1 | 1,350 M^-1s^-1 | – | – | – | – |
| CCOC(=O)[C@H]1O[C@@H]1C(=O)N[C@@H](CC(C)C)C(=O)NCCC(C)C [E64d, reference compound] | – | – | – | – | – | – | – | – | – | – | blocked all cysteine cathepsin activity |
| biotin-6-ahx-His-DThr-Phe(F5)-Lys-AOMK [MP-cL2] [listing 1 of 2 here] | – | – | 10,500 M^-1s^-1 | 360 M⁻¹ s⁻¹ | 1,250 M^-1s^-1 | < 100 M⁻¹ s⁻¹ | < 100 M⁻¹ s⁻¹ | – | – | – | – |
| biotin-6-ahx-His-DThr-Phe(F5)-Lys-AOMK [MP-cL2] [listing 2 of 2 here] | 100 | only minor cross-reactivity | – | – | – | – | – | – | – | – | – |
